The results in this text go back to ChEMBL document CHEMBL1201862, “PubChem BioAssay data set” (2004).

Some test systems named below: A549; ACHN; CCRF-CEM; HOP-62; HT-29; KM12; M14; MOLT-4; NCI-H23; OVCAR-4; OVCAR-8; SF-268; SK-MEL-2; SK-OV-3; SNB-19; SW-620; TK-10; U-251; UACC-62; UO-31.
Holding throughout (experiment): inhibition of tumour cell growth, NCI panel, 48 h

Structures are written as SMILES.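 Interpolation was linear, between the two tested concentrations surrounding the appropriate level; five concentrations were tested over 48 hours in 96-well plates. GI50 = concentration required for 50% inhibition of growth.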 The source made the active and inactive calls. No stated cut-off is given here; in the data, active = GI50 up to about 1.1 µM and inactive = higher. Bounds are passed on as bounds.

Turning to `CCOC(=O)c1csc(NC(=O)CN2CCCCC2)n1`, the GI50 in the test on A549, with ACHN, with CCRF-CEM, with HOP-62, in the test with HT-29 and in the test on KM12 was > 100 µM (inactive) throughout. Moreover, the GI50 with M14, with MOLT-4, in the test with NCI-H23, in the test with OVCAR-4, in the test on OVCAR-8 and in the test with SF-268 was > 100 µM (inactive) in each case. The GI50 in the test with SK-MEL-2, in the test with SK-OV-3, in the test with SNB-19, in the test with SW-620, with TK-10 and with U-251 was > 100 µM (inactive) throughout. Moreover, the GI50 with UACC-62 and in the test on UO-31 was > 100 µM (inactive) each time.
Consider `Cc1cc2c3c(c1)CCCN3CCC2`, for which the GI50 in the test with A549, with ACHN, in the test on CCRF-CEM, with HOP-62, with HT-29 and with KM12 was > 10 µM (inactive) each time. The GI50 with M14, in the test on MOLT-4, with NCI-H23, in the test with OVCAR-4, with OVCAR-8 and with SF-268 was > 10 µM (inactive) each time. The GI50 in the test on SK-MEL-2, with SK-OV-3, in the test on SNB-19, with SW-620, with TK-10 and with U-251 was > 10 µM (inactive) throughout. The GI50 in the test with UACC-62 and in the test with UO-31 was > 10 µM (inactive) each time.
Regarding `CCOC(=O)c1cc(C(=O)O)c(=O)n2c1[nH]c1ccccc12`, the GI50 in the test on A549 is 60.8 µM (inactive); in the test on ACHN, > 100 µM (inactive); with CCRF-CEM, > 100 µM (inactive); in the test on HOP-62, > 100 µM (inactive); in the test with HT-29, > 100 µM (inactive); in the test with KM12 it was > 100 µM (inactive). Further, the GI50 in the test on M14 is > 100 µM (inactive); in the test with MOLT-4 it was > 100 µM (inactive); in the test on NCI-H23, 26.9 µM (inactive); in the test with OVCAR-4 it was > 100 µM (inactive); with OVCAR-8, > 100 µM (inactive); in the test with SF-268, 61 µM (inactive). The GI50 with SK-MEL-2 was > 100 µM (inactive); in the test with SK-OV-3, 78.7 µM (inactive); with SNB-19, 44.3 µM (inactive); with SW-620, > 100 µM (inactive); in the test with TK-10, > 100 µM (inactive); with U-251, 83.4 µM (inactive). Further, the GI50 is 44.5 µM (inactive) in the test with UACC-62 and 23.9 µM (inactive) in the test with UO-31.
As to `O=C(/C=C1\Nc2ncccc2N=C1CC(=O)c1ccccc1)c1ccccc1`, the GI50 in the test with A549 was 6.05 µM (inactive); in the test with ACHN, 4.94 µM (inactive); in the test on CCRF-CEM, 2.49 µM (inactive); in the test with HOP-62, 0.679 µM (active); in the test on HT-29, 6.89 µM (inactive); with KM12, 6.43 µM (inactive). The GI50 with M14 was 7.35 µM (inactive); in the test on MOLT-4 it was 3.4 µM (inactive); with NCI-H23, 23.1 µM (inactive); in the test on OVCAR-4, 9.2 µM (inactive); with OVCAR-8, 5.93 µM (inactive); with SF-268, 2.53 µM (inactive). The GI50 in the test with SK-MEL-2 is 12.6 µM (inactive); in the test on SK-OV-3, 12 µM (inactive); with SNB-19 it was 7.69 µM (inactive); in the test with SW-620 it was 5.52 µM (inactive); with TK-10 it was 35.6 µM (inactive); in the test with U-251, 3.24 µM (inactive). The GI50 is 2.84 µM (inactive) in the test with UACC-62 and 5.47 µM (inactive) with UO-31.
As to `O=[N+]([O-])c1ccc(S(=O)(=O)N=Ic2ccccc2)cc1`, the GI50 in the test with A549, in the test on ACHN, in the test on CCRF-CEM, in the test with HOP-62, in the test on HT-29 and in the test with KM12 was > 100 µM (inactive) each time. Moreover, the GI50 with M14, with MOLT-4, with NCI-H23, in the test on OVCAR-4, with OVCAR-8 and in the test with SF-268 was > 100 µM (inactive) in each case. Moreover, the GI50 with SK-MEL-2, in the test with SK-OV-3, in the test with SNB-19, in the test on SW-620, in the test with TK-10 and in the test on U-251 was > 100 µM (inactive) in each case. Further, the GI50 with UACC-62 and with UO-31 was > 100 µM (inactive) each time.
Regarding `COc1ccc(N2C(=O)C3c4[nH]c5ccc(F)cc5c4C4CCC(C(C)(C)C)CC4C3C2=O)cc1` (stereo not given), the GI50 was 7.1 µM (inactive) in the test on A549; > 10 µM (inactive) with ACHN; 7.13 µM (inactive) in the test on CCRF-CEM; 7.23 µM (inactive) in the test with HOP-62; 6.28 µM (inactive) with HT-29; > 10 µM (inactive) in the test with KM12. Moreover, the GI50 in the test on M14 was 7.85 µM (inactive); in the test with MOLT-4 it was > 10 µM (inactive); in the test on NCI-H23 it was > 10 µM (inactive); with OVCAR-4 it was 6.05 µM (inactive); in the test on OVCAR-8, 7.8 µM (inactive); with SF-268, 8.28 µM (inactive). The GI50 with SK-MEL-2 is > 10 µM (inactive); in the test with SK-OV-3, > 10 µM (inactive); with SNB-19, > 10 µM (inactive); in the test on SW-620, 7.26 µM (inactive); in the test on TK-10 it was 9.38 µM (inactive); with U-251, 5.02 µM (inactive). In addition, the GI50 is 7.43 µM (inactive) with UACC-62 and > 10 µM (inactive) with UO-31.
As to `CC(C)(C)N(Cc1ccoc1)C(=O)/C=C\[S+]([O-])c1ccccc1` (stereo not given), the GI50 was 24.3 µM (inactive) with A549; 25.9 µM (inactive) in the test on ACHN; 3.05 µM (inactive) in the test with CCRF-CEM; 16.6 µM (inactive) with HOP-62; 22.9 µM (inactive) in the test with HT-29; 16.6 µM (inactive) with KM12. Also, the GI50 was 17.2 µM (inactive) with M14; 22.5 µM (inactive) in the test with MOLT-4; 12.9 µM (inactive) in the test on NCI-H23; 20 µM (inactive) in the test with OVCAR-4; 14.4 µM (inactive) with OVCAR-8; 30.1 µM (inactive) with SF-268. Further, the GI50 in the test with SK-MEL-2 was 20.9 µM (inactive); in the test with SK-OV-3, 24 µM (inactive); in the test with SNB-19 it was 28.3 µM (inactive); in the test with SW-620, 10.2 µM (inactive); in the test with TK-10, 44.2 µM (inactive); in the test on U-251, 15.5 µM (inactive). Moreover, the GI50 in the test on UACC-62 was 20 µM (inactive); in the test on UO-31, 14.5 µM (inactive).
